Results taken from PubChem BioAssay AID248 (DTP/NCI, 2004).
Several values for one entry are separate records, joined by “and”; a condition that tells them apart may be missing. Identical values can stand only once. Toxic doses and inconclusive results are not listed. No stated cut-off is given here; in the data, active means T/C of 150% or more; inactive means T/C below 125%.

System: L1210 leukemia ip in BDF1 mice, survival T/C
Assay: NCI In Vivo Anticancer Drug Screen. Data for tumor model L1210 Leukemia (intraperitoneal) in B6D2F1 (BDF1) mice
Conditions: endpoint: mean survival time, higher = longer survival
Method in brief: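 Antitumor effect is assessed in tumor-bearing animals. Survival in the compound arm is compared with a vehicle-dosed control arm and expressed as their quotient.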

[1] = dose: 5.0 mg/kg/injection, schedule: Q01DX001 (ip), vehicle: saline
[2] = dose: 10.0 mg/kg/injection, schedule: Q01DX001 (ip), vehicle: saline
[3] = dose: 20.0 mg/kg/injection, schedule: Q01DX001 (ip), vehicle: saline
[4] = dose: 40.0 mg/kg/injection, schedule: Q01DX001 (ip), vehicle: saline
[5] = dose: 80.0 mg/kg/injection, schedule: Q01DX001 (ip), vehicle: saline
[6] = dose: 200.0 mg/kg/injection, schedule: Q01DX001 (ip), vehicle: saline
[7] = dose: 100.0 mg/kg/injection, schedule: Q04DX003 (ip), vehicle: saline with Tween-80
[8] = dose: 200.0 mg/kg/injection, schedule: Q04DX003 (ip), vehicle: saline with Tween-80
[9] = dose: 400.0 mg/kg/injection, schedule: Q04DX003 (ip), vehicle: saline with Tween-80
[10] = dose: 100.0 mg/kg/injection, schedule: Q01DX001 (ip), vehicle: saline
[11] = dose: 400.0 mg/kg/injection, schedule: Q01DX001 (ip), vehicle: saline
[12] = dose: 100.0 mg/kg/injection, schedule: Q01DX001 (ip), vehicle: saline with Tween-80
[13] = dose: 100.0 mg/kg/injection, schedule: Q04DX002 (ip), vehicle: saline with Tween-80
[14] = dose: 200.0 mg/kg/injection, schedule: Q01DX001 (ip), vehicle: saline with Tween-80
[15] = dose: 200.0 mg/kg/injection, schedule: Q04DX002 (ip), vehicle: saline with Tween-80
[16] = dose: 400.0 mg/kg/injection, schedule: Q01DX001 (ip), vehicle: saline with Tween-80
[17] = dose: 400.0 mg/kg/injection, schedule: Q04DX002 (ip), vehicle: saline with Tween-80
[18] = dose: 50.0 mg/kg/injection, schedule: Q01DX001 (ip), vehicle: saline
[19] = dose: 50.0 mg/kg/injection, schedule: Q01DX009 (ip), vehicle: saline with Tween-80
[20] = dose: 100.0 mg/kg/injection, schedule: Q01DX009 (ip), vehicle: saline with Tween-80
[21] = dose: 200.0 mg/kg/injection, schedule: Q01DX009 (ip), vehicle: saline with Tween-80

Measured: T/C

O=C(C=C(C(F)(F)F)C(F)(F)F)c1ccc([N+](=O)[O-])cc1
inactive: dose: 3.13 mg/kg/injection, schedule: Q01DX009 (ip), vehicle: other 105 % of control | dose: 3.13 mg/kg/injection, schedule: Q04DX003 (ip), vehicle: other 100 % of control | dose: 6.25 mg/kg/injection, schedule: Q01DX009 (ip), vehicle: other 110 % of control | dose: 6.25 mg/kg/injection, schedule: Q04DX003 (ip), vehicle: other 95 % of control | dose: 12.5 mg/kg/injection, schedule: Q04DX003 (ip), vehicle: other 100 % of control and 103 % of control | dose: 25.0 mg/kg/injection, schedule: Q04DX003 (ip), vehicle: other 96 % of control

Cc1ccc(C(=O)CCCN2CCOCC2)c(C)c1
inactive: [1] 105 % of control | [2] 97 % of control | [3] 94 % of control | [4] 108 % of control | [5] 100 % of control | [6] 95 % of control

CC1(C(=O)O)CC1(C)C(=O)O (centres undefined)
inactive: [7] 103 % of control | [8] 96 % of control | [9] 92 % of control

Cc1nn[nH]n1
inactive: [10] 119 % of control | [6] 105 % of control | [11] 105 % of control

CCC(C(=O)NNC(=O)c1cc(OC)c(OC)c(OC)c1)c1ccccc1 (centres undefined)
inactive: [12] 96 % of control | [13] 97 % of control and 101 % of control | [7] 100 % of control and 90 % of control | [14] 98 % of control | [15] 97 % of control and 98 % of control | [8] 93 % of control and 104 % of control | [16] 93 % of control | [17] 101 % of control and 90 % of control | [9] 92 % of control and 93 % of control

CC(C)c1ccc(/C=C/C(=O)c2ccc([N+](=O)[O-])cc2)cc1
inactive: dose: 100.0 mg/kg/injection, schedule: Q04DX002 (ip), vehicle: gum acacia 98 % of control | dose: 200.0 mg/kg/injection, schedule: Q04DX002 (ip), vehicle: gum acacia 92 % of control | dose: 400.0 mg/kg/injection, schedule: Q04DX002 (ip), vehicle: gum acacia 95 % of control

O=C(CCCC(=O)NNC(=O)Nc1ccc(N=Nc2ccccc2)cc1)NNC(=O)Nc1ccc(N=Nc2ccccc2)cc1
inactive: [18] 93 % of control | [10] 102 % of control | [6] 96 % of control | [11] 100 % of control

CCCCc1ccncc1
inactive: [1] 102 % of control | [2] 100 % of control | [3] 100 % of control | [4] 90 % of control | [5] 93 % of control | [10] 98 % of control

Cc1ccc(S(=O)(O)=S)cc1.[Fe]
inactive: dose: 75.0 mg/kg/injection, schedule: Q01DX001 (ip), vehicle: saline 88 % of control | dose: 300.0 mg/kg/injection, schedule: Q01DX001 (ip), vehicle: saline 86 % of control

CC(=O)CSc1nc2nccnc2[nH]1
inactive: dose: 25.0 mg/kg/injection, schedule: Q01DX009 (ip), vehicle: saline with Tween-80 110 % of control | [19] 110 % of control | [20] 104 % of control | [21] 104 % of control | dose: 400.0 mg/kg/injection, schedule: Q01DX009 (ip), vehicle: saline with Tween-80 107 % of control

C=C(C)C(=O)OC1CC23OC2CC(COC3O)C2OC2C2OC(=O)C(=C)C12 (centres undefined)
inactive: dose: 6.25 mg/kg/injection, schedule: Q01DX009 (ip), vehicle: acetone 98 % of control | dose: 12.5 mg/kg/injection, schedule: Q01DX001 (ip), vehicle: acetone 106 % of control | dose: 12.5 mg/kg/injection, schedule: Q01DX009 (ip), vehicle: acetone 104 % of control | dose: 12.5 mg/kg/injection, schedule: Q04DX003 (ip), vehicle: acetone 90 % of control | dose: 25.0 mg/kg/injection, schedule: Q01DX001 (ip), vehicle: acetone 106 % of control | dose: 25.0 mg/kg/injection, schedule: Q04DX003 (ip), vehicle: acetone 104 % of control | dose: 50.0 mg/kg/injection, schedule: Q01DX001 (ip), vehicle: acetone 109 % of control

COc1ccc(C2=Cc3ccc(OC(C)=O)cc3OC2)cc1
inactive: dose: 50.0 mg/kg/injection, schedule: Q01DX001 (sc), vehicle: steriod suspending solution 101 % of control | dose: 100.0 mg/kg/injection, schedule: Q01DX001 (sc), vehicle: steriod suspending solution 103 % of control | dose: 200.0 mg/kg/injection, schedule: Q01DX001 (sc), vehicle: steriod suspending solution 101 % of control | dose: 400.0 mg/kg/injection, schedule: Q01DX001 (sc), vehicle: steriod suspending solution 95 % of control

CC(CO)CCCC(C)C1CCC2C3CC=C4CC(O)CCC4(C)C3CCC12C (centres undefined)
inactive: [12] 94 % of control | [14] 90 % of control | [16] 100 % of control

O=C(OC1CCCC1c1ccccc1)c1cccc([N+](=O)[O-])c1 (centres undefined)
inactive: [19] 90 % of control | [20] 90 % of control | [21] 87 % of control

Nc1nc(-c2cc(Br)ccc2N=NN2CCOCC2)nc2ccc(Br)cc12
inactive: dose: 100.0 mg/kg/injection, schedule: Q04DX002 (ip), vehicle: Klucel (hydroxypropylcellulose) (HPC) 105 % of control | dose: 200.0 mg/kg/injection, schedule: Q04DX002 (ip), vehicle: Klucel (hydroxypropylcellulose) (HPC) 96 % of control | dose: 400.0 mg/kg/injection, schedule: Q04DX002 (ip), vehicle: Klucel (hydroxypropylcellulose) (HPC) 89 % of control

CCc1ccc(C(=O)c2ccccc2)c2c1C(=O)c1ccccc1C2=O
inactive: [13] 91 % of control | [15] 88 % of control | [17] 102 % of control

CCCCCCCCCCC(=O)CCC
inactive: dose: 50.0 mg/kg/injection, schedule: Q01DX009 (ip), vehicle: Klucel (hydroxypropylcellulose) (HPC) 92 % of control | dose: 100.0 mg/kg/injection, schedule: Q01DX009 (ip), vehicle: Klucel (hydroxypropylcellulose) (HPC) 97 % of control | dose: 100.0 mg/kg/injection, schedule: Q04DX003 (ip), vehicle: Klucel (hydroxypropylcellulose) (HPC) 95 % of control and 98 % of control | dose: 200.0 mg/kg/injection, schedule: Q04DX003 (ip), vehicle: Klucel (hydroxypropylcellulose) (HPC) 90 % of control | dose: 400.0 mg/kg/injection, schedule: Q04DX003 (ip), vehicle: Klucel (hydroxypropylcellulose) (HPC) 95 % of control and 100 % of control

NC(=O)c1cn(C2OC(CO)C(O)C2O)c2ncn3ccnc3c12 (centres undefined)
inactive: dose: 6.25 mg/kg/injection, schedule: Q01DX005 (ip), vehicle: saline 101 % of control | dose: 12.5 mg/kg/injection, schedule: Q01DX005 (ip), vehicle: saline 106 % of control

CN(C)C=Nc1ccc(Cl)cc1
inactive: dose: 25.0 mg/kg/injection, schedule: Q01DX001 (ip), vehicle: other 93 % of control | dose: 50.0 mg/kg/injection, schedule: Q01DX001 (ip), vehicle: other 101 % of control | [18] 100 % of control | dose: 50.0 mg/kg/injection, schedule: Q04DX003 (ip), vehicle: other 90 % of control | dose: 100.0 mg/kg/injection, schedule: Q01DX001 (ip), vehicle: other 103 % of control and 91 % of control | dose: 100.0 mg/kg/injection, schedule: Q04DX003 (ip), vehicle: other 102 % of control | dose: 200.0 mg/kg/injection, schedule: Q04DX003 (ip), vehicle: other 101 % of control
